From US10689705B2, “FGFR3 fusion gene and pharmaceutical drug targeting same” (Chugai Seiyaku Kabushiki Kaisha, priority 2012, dated 2020)

Assays:
[1] = system: colon cancer-derived cell line HCT116; assay: cells; settings: Homo sapiens, HCT-116, 96 h, read-out: HCT116 (CRC) IC50;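 further: proliferation measured with WST-8, IC50 derived by least-squares fitting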
SW780 = assay: Cell proliferation inhibition, WST-8, four days (Example 3); type: cell-based; settings: Homo sapiens, SW780, 96 h, fusion polypeptide expressing
Experimental: (§1) IC50 was calculated using the least-square method.

HT-1376 = assay: as above; type: cell-based; settings: Homo sapiens, HT-1376, 96 h, does not express FGFR3
Experimental: as §1

BFTC-905 = assay: as above; type: cell-based; settings: Homo sapiens, BFTC-905, 96 h, wild-type FGFR, no fusion
Experimental: as §1

RT4 = assay: as above; type: cell-based; settings: Homo sapiens, RT-4, 96 h, fusion polypeptide expressing
Experimental: as §1

RT112/84 = assay: as above; type: cell-based; settings: Homo sapiens, RT112/84, 96 h, fusion polypeptide expressing
Experimental: as §1

UM-UC-14 = assay: as above; type: cell-based; settings: Homo sapiens, UMUC14, 96 h, mutated type FGFR, no fusion
Experimental: as §1

| SMILES | IC50 [1] | also measured |
| --- | --- | --- |
| Cc1nc2ccc(-n3ncc(C(=O)c4cc5cc(CN6C(C)CCC6C)ccc5[nH]4)c3N)cc2[nH]1 (stereo not drawn) [Compound 5] | 11 µM |  |
| COCCN(CCOC)Cc1ccc2cc(C(=O)c3cnn(-c4ccc5[nH]c(C)nc5c4)c3N)[nH]c2c1 [Compound 8] | 11 µM |  |
| CN1CCN(c2ccc3nc(-c4c(N)c5c(F)cccc5[nH]c4=O)[nH]c3c2)CC1 [COMPOUND F, dovitinib] |  | IC50 (SW780): 0.57 µM; IC50 (HT-1376): 0.62 µM; IC50 (BFTC-905): 2.8 µM; IC50 (RT4): 0.25 µM; IC50 (RT112/84): 0.13 µM; IC50 (UM-UC-14): 0.075 µM |
| Cc1nc2cc(-n3ncc(C(=O)c4cc5ccc(-c6cnn(C)c6)cc5[nH]4)c3N)ccc2[nH]1 [Compound 24] | > 50 µM |  |
| Cc1nc2cc(-n3ncc(C(=O)c4cc5ccc(-c6cncc(S(C)(=O)=O)c6)cc5[nH]4)c3N)ccc2[nH]1 [Compound 35] | 7.8 µM |  |
| C#Cc1cccc2[nH]c(C(=O)c3cnn(-c4ccc5[nH]c(C)nc5c4)c3N)cc12 [Compound 63] | 13 µM |  |
| Cc1nc2cc(-n3ncc(C(=O)c4cc5c(C)cccc5[nH]4)c3N)ccc2[nH]1 [Compound 42] | 15 µM |  |
| Cc1nc2ccc(-n3ncc(C(=O)c4cc5ccc(C#N)cc5[nH]4)c3N)cc2[nH]1 [Compound 10] | > 50 µM |  |
| Cc1nc2cc(-n3ncc(C(=O)c4cc5cc(C(=O)N6CCC(N7CCCCC7)CC6)ccc5[nH]4)c3N)ccc2[nH]1 [Compound 54] | > 20 µM |  |
| Cc1nc2cc(-n3ncc(C(=O)c4cc5ccc(CN6CCOC[C@@H]6C)cc5[nH]4)c3N)ccc2[nH]1 [Compound 3] | 2.9 µM |  |
| CCCCc1ccc2cc(C(=O)c3cnn(-c4ccc5nc(C)[nH]c5c4)c3N)[nH]c2c1 [Compound 16] | 17 µM |  |
| Cc1nc2ccc(-n3ncc(C(=O)c4cc5ccc(Cl)cc5[nH]4)c3N)cc2[nH]1 [Compound 50] | 34 µM |  |
| Cc1nc2cc(-n3ncc(C(=O)c4cc5cc(SC(F)(F)F)ccc5[nH]4)c3N)ccc2[nH]1 [Compound 61] | 9.1 µM |  |
| Cc1nc2cc(-n3ncc(C(=O)c4cc5ccc(NS(C)(=O)=O)cc5[nH]4)c3N)ccc2[nH]1 [Compound 66] | > 50 µM |  |
| Cc1nc2cc(-n3ncc(C(=O)c4cc5ccc(OC6COC6)cc5[nH]4)c3N)ccc2[nH]1 [Compound 21] | 21 µM |  |
| CCCCOc1ccc2[nH]c(C(=O)c3cnn(-c4ccc5[nH]c(C)nc5c4)c3N)cc2c1 [Compound 38] | 6.1 µM |  |
| COc1cc2[nH]c(C(=O)c3cnn(-c4ccc5[nH]c(C)nc5c4)c3N)cc2cc1Cl [Compound 58] | 12 µM |  |
| Cc1nc2cc(-n3ncc(C(=O)c4cc5ccc(C6CC6)cc5[nH]4)c3N)ccc2[nH]1 [Compound 12] | 7.2 µM |  |
| Cc1ccc(-c2ccc3cc(C(=O)c4cnn(-c5ccc6[nH]c(C)nc6c5)c4N)[nH]c3c2)cn1 [Compound 41] | > 20 µM |  |
| Cc1nc2ccc(-n3ncc(C(=O)c4[nH]c5ccccc5c4F)c3N)cc2[nH]1 [Compound 36] | 4.8 µM |  |
| COc1cc(OC)c2cc(C(=O)c3cnn(-c4ccc5[nH]c(C)nc5c4)c3N)[nH]c2c1 [Compound 37] | 8.9 µM |  |
| Cc1nc2cc(-n3ncc(C(=O)c4cc5ccc(O)cc5[nH]4)c3N)ccc2[nH]1 [Compound 48] | 37 µM |  |
| Cc1nc2cc(-n3ncc(C(=O)c4cc5cc6c(cc5[nH]4)OC(F)(F)O6)c3N)ccc2[nH]1 [Compound 53] | > 20 µM |  |

| SMILES | IC50 [1] | also measured |
| --- | --- | --- |
| Cc1nc2cc(-n3ncc(C(=O)c4cc5cc(F)c(Br)cc5[nH]4)c3N)ccc2[nH]1 [Compound 70] | 9 µM |  |
| Cc1nc2cc(-n3ncc(C(=O)c4cc5cc(F)c(C(F)(F)F)cc5[nH]4)c3N)ccc2[nH]1 [Compound 62] | 1.7 µM |  |
| Cc1nc2ccc(-n3ncc(C(=O)c4cc5cc(C6CCNCC6)c(F)cc5[nH]4)c3N)cc2[nH]1 [Compound 55] | 16 µM |  |
| Cc1nc2cc(-n3ncc(C(=O)c4cc5ccc(I)cc5[nH]4)c3N)ccc2[nH]1 [Compound 22] | 1.2 µM |  |
| Cc1nc2ccc(-n3ncc(C(=O)c4cc5ccc(-c6cccs6)cc5[nH]4)c3N)cc2[nH]1 [Compound 13] | 0.39 µM |  |
| Cc1nc2cc(-n3ncc(C(=O)c4cc5ccc(OC6CCOCC6)cc5[nH]4)c3N)ccc2[nH]1 [Compound 67] | 7.3 µM |  |
| Cc1nc2cc(-n3ncc(C(=O)c4cc5ccc(OCc6ccccc6)cc5[nH]4)c3N)ccc2[nH]1 [Compound 59] | 3.3 µM |  |
| Cc1nc2cc(-n3ncc(C(=O)c4cc5cc(Cc6ccccc6)ccc5[nH]4)c3N)ccc2[nH]1 [Compound 71] | 3.8 µM |  |
| Cc1nc2cc(-n3ncc(C(=O)c4cc5ccc(OCCN6CCOCC6)cc5[nH]4)c3N)ccc2[nH]1 [Compound 45] | 9.4 µM |  |
| Cc1nc2cc(-n3ncc(C(=O)c4cc5cc(Oc6ccccc6)ccc5[nH]4)c3N)ccc2[nH]1 [Compound 69] | 4.3 µM |  |
| Cc1nc2cc(-n3ncc(C(=O)c4cc5cc(-n6ccnc6)ccc5[nH]4)c3N)ccc2[nH]1 [Compound 65] | 23 µM |  |
| Cc1nc2cc(-n3ncc(C(=O)c4cc5ccc(-c6ccc(F)cn6)cc5[nH]4)c3N)ccc2[nH]1 [Compound 26] | 11 µM |  |
| Cc1nc2cc(-n3ncc(C(=O)c4cc5cc(C6CCN(C(C)C)CC6)c(C(F)(F)F)cc5[nH]4)c3N)ccc2[nH]1 [Compound 31] | 2 µM |  |
| Cc1nc2cc(-n3ncc(C(=O)c4cc5c(OC(C)C)cccc5[nH]4)c3N)ccc2[nH]1 [Compound 56] | 19 µM |  |
| COCCOc1ccc2[nH]c(C(=O)c3cnn(-c4ccc5[nH]c(C)nc5c4)c3N)cc2c1 [Compound 25] | > 100 µM |  |
| Cc1nc2cc(-n3ncc(C(=O)c4cc5cc(C(=O)N6CCN(CC(F)(F)F)CC6)ccc5[nH]4)c3N)ccc2[nH]1 [Compound 57] | > 20 µM |  |
| Cc1nc2cc(-n3ncc(C(=O)c4cc5ccc(-c6ccc(F)cc6)cc5[nH]4)c3N)ccc2[nH]1 [Compound 64] | 1.2 µM |  |
| Cc1nc2cc(-n3ncc(C(=O)c4cc5cc(C(F)(F)F)ccc5[nH]4)c3N)ccc2[nH]1 [Compound 68] | > 2 µM |  |
| Cc1cc(C)c2cc(C(=O)c3cnn(-c4ccc5[nH]c(C)nc5c4)c3N)[nH]c2c1 [Compound 29] | 8.5 µM |  |
| Cc1nc2ccc(-n3ncc(C(=O)c4cc5cc(C6=CCNCC6)ccc5[nH]4)c3N)cc2[nH]1 [Compound 32] | 8.7 µM |  |
| Cc1nc2ccc(-n3ncc(C(=O)c4cc5cc(C6CCN(C(C)C)CC6)ccc5[nH]4)c3N)cc2[nH]1 [Compound 11] | 5.7 µM |  |
| Cc1nc2ccc(-n3ncc(C(=O)c4cc5cc(CN6CCCC(F)C6)ccc5[nH]4)c3N)cc2[nH]1 (stereo not drawn) [Compound 4] | 9.5 µM |  |
| Cc1nc2cc(-n3ncc(C(=O)c4cc5cc(C(C)(C)C)ccc5[nH]4)c3N)ccc2[nH]1 [Compound 33] | 4.4 µM |  |

| SMILES | IC50 [1] | also measured |
| --- | --- | --- |
| Cc1nc2ccc(-n3ncc(C(=O)c4cc5cc(-c6cccnc6)ccc5[nH]4)c3N)cc2[nH]1 [Compound 28] | 21 µM |  |
| COc1ccc2cc(C(=O)c3cnn(-c4ccc5[nH]c(C)nc5c4)c3N)[nH]c2c1 [Compound 18] | 11 µM |  |
| C#CCN(C)Cc1ccc2cc(C(=O)c3cnn(-c4ccc5[nH]c(C)nc5c4)c3N)[nH]c2c1 [Compound 19] | 2.5 µM |  |
| Cc1nc2cc(-n3ncc(C(=O)c4cc5cc(C(=O)N6CCCC(F)(F)C6)ccc5[nH]4)c3N)ccc2[nH]1 [Compound 60] | 17 µM |  |
| Cc1nc2cc(-n3ncc(C(=O)c4cc5cc(OCC6CC6)ccc5[nH]4)c3N)ccc2[nH]1 [Compound 39] | 11 µM |  |
| COc1ccccc1-c1ccc2cc(C(=O)c3cnn(-c4ccc5[nH]c(C)nc5c4)c3N)[nH]c2c1 [Compound 51] | 5.1 µM |  |
| Cc1nc2cc(-n3ncc(C(=O)c4cc5ccc(OCCN6CCN(C)CC6)cc5[nH]4)c3N)ccc2[nH]1 [Compound 9] | 6.3 µM |  |
| Cc1nc2cc(-n3ncc(C(=O)c4cc5ccc(OCC6(C)COC6)cc5[nH]4)c3N)ccc2[nH]1 [Compound 6] | 12 µM |  |
| Cc1nc2ccc(-n3ncc(C(=O)c4cc5cc(C6CCN(C7CCCC7)CC6)ccc5[nH]4)c3N)cc2[nH]1 [Compound 17] | 3.8 µM |  |
| Cc1nc2cc(-n3ncc(C(=O)c4cc5cc(CN6CCN(S(C)(=O)=O)CC6)ccc5[nH]4)c3N)ccc2[nH]1 [Compound 47] | 14 µM |  |
| Cc1nc2cc(-n3ncc(C(=O)c4cc5ncccc5[nH]4)c3N)ccc2[nH]1 [Compound 40] | 19 µM |  |
| CSc1ccc2cc(C(=O)c3cnn(-c4ccc5[nH]c(C)nc5c4)c3N)[nH]c2c1 [Compound 30] | 13 µM |  |
| Cc1nc2cc(-n3ncc(C(=O)c4cc5ccc(Br)cc5[nH]4)c3N)ccc2[nH]1 [Compound 44] | 10 µM |  |
| Cc1nc2ccc(-n3ncc(C(=O)c4cc5ccc(C6CCN(C)CC6)cc5[nH]4)c3N)cc2[nH]1 [Compound 2] | 2.7 µM |  |
| COc1ncccc1-c1ccc2cc(C(=O)c3cnn(-c4ccc5[nH]c(C)nc5c4)c3N)[nH]c2c1 [Compound 43] | > 50 µM |  |
| Cc1nc2cc(-n3ncc(C(=O)c4cc5ccccc5[nH]4)c3N)c(F)cc2[nH]1 [Compound 15] | 19 µM |  |
| CN1CCC(c2ccc3[nH]c(C(=O)c4cnn(-c5ccc6nc(C(F)F)[nH]c6c5)c4N)cc3c2)CC1 [Compound 23] | 10 µM |  |
| Cc1nc2cc(-n3ncc(C(=O)c4cc5ccc(-c6ccc(C(F)(F)F)cn6)cc5[nH]4)c3N)ccc2[nH]1 [Compound 52] | 10 µM |  |
| Cc1nc2cc(-n3ncc(C(=O)c4cc5ccc(-c6ccc(N7CCOCC7)nc6)cc5[nH]4)c3N)ccc2[nH]1 [Compound 20] | > 50 µM |  |
| Cc1nc2ccc(-n3ncc(C(=O)c4cc5ccc(CO)cc5[nH]4)c3N)cc2[nH]1 [Compound 27] | 25 µM |  |
| Cc1nc2cc(-n3ncc(C(=O)c4cc5cc6c(cc5[nH]4)OCCO6)c3N)ccc2[nH]1 [Compound 14] | 3.1 µM |  |
